Measurements: article PMC9597602, “Metal Complexes as Antifungals? From a Crowd-Sourced Compound Library to the First In Vivo Experiments” (JACS Au, 2022)
Like-named read-outs stand apart in the source and are kept apart here.

What was measured:
[1] = tested on: Acinetobacter baumannii ATCC 19606 type strain; test: CO-ADD antibacterial MIC assay; format: cell-based; settings: initial CO-ADD dose-response screening; ≥80% growth inhibition
Summary of the method: (§1)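 CAMHB broth microdilution; inoculum 5 × 10^5 CFU/mL from mid-log culture; 37 °C 18 h static; OD600 read-out; MIC at ≥80% inhibition; colistin (Gram-negative) and vancomycin (Gram-positive) internal controls.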

[2] = tested on: Escherichia coli ATCC 25922 FDA control strain; test: CO-ADD antibacterial MIC assay; format: cell-based; settings: initial CO-ADD dose-response screening; ≥80% growth inhibition
Summary of the method: as §1

[3] = tested on: Pseudomonas aeruginosa ATCC 27853 QC control strain; test: CO-ADD antibacterial MIC assay; format: cell-based; settings: initial CO-ADD dose-response screening; ≥80% growth inhibition
Summary of the method: as §1

[4] = tested on: methicillin-resistant Staphylococcus aureus ATCC 43300; test: CO-ADD antibacterial MIC assay; format: cell-based; settings: initial CO-ADD dose-response screening; ≥80% growth inhibition
Summary of the method: as §1

[5] = tested on: Candida albicans ATCC 90028 NCCLS11; test: Antifungal MIC assay; format: cell-based; settings: for MIC Ca: initial CO-ADD dose-response screening, ≥80% growth inhibition; for MIC50 Candida albicans ATCC 90028: 50% inhibition, MIC score 2
Summary of the method: (§2)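 Broth microdilution in YNB medium at a final density of 2.5 × 10^3 CFU/mL, from yeast grown 3 days on YPD agar at 30 °C; incubated 35 °C for 36 h without shaking. MIC is the lowest concentration giving ≥80% growth inhibition (CLSI M27 score 0–1); n = 4–8 from replicate independent runs.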

[6] = tested on: Cryptococcus neoformans H99 ATCC 208821 type strain; test: Antifungal MIC assay; format: cell-based; settings: for MIC Cryptococcus neoformans ATCC 208821 / MIC / MIC50 Cryptococcus neoformans ATCC 208821: extended panel; for MIC Cryptococcus neoformans ATCC 208821 / MIC: second batch, ≥80 or ≥50% inhibition; for MIC Cn: initial CO-ADD dose-response screening, ≥80% growth inhibition; for MIC: read-out: MIC* Cryptococcus neoformans ATCC 208821; for MIC50 Cryptococcus neoformans ATCC 208821: 50% inhibition, MIC score 2
Summary of the method: as §2

[7] = tested on: HEK-293 human embryonic kidney cells ATCC CRL-1573
Experimental: The cells were incubated together with the compounds for 20 h at 37 °C in 5% CO2. […] Tamoxifen (Sigma T5648) was used as internal control on each plate.

human red blood cells = format: cell-based
Summary of the method: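 Washed human erythrocytes at 0.5 × 10^8 cells/mL incubated with compound, then centrifuged. Haemolysis read as supernatant OD405, normalised to untreated cells (0%) and 1% Triton X-100 (100%), with melittin as internal plate control.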

[8] = tested on: Candida auris CBS10913 JCM 15448; test: Antifungal MIC assay, extended panel; format: cell-based; settings: extended panel; for MIC Candida auris CBS10913 / MIC: second batch, ≥80 or ≥50% inhibition; for MIC: read-out: MIC* Candida auris CBS10913; for MIC50 Candida auris CBS10913: 50% inhibition, MIC score 2
Summary of the method: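 Yeast strains were grown on YPD agar at 30 °C for 3 days. Five colonies were suspended to 1 × 10^6 to 5 × 10^6 CFU/mL (by OD530), diluted in YNB medium, and dispensed into compound-containing 384-well NBS plates to 2.5 × 10^3 CFU/mL in 50 μL. Covered plates were held at 35 °C for 36 h without shaking, and MIC was determined by broth dilution.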

[9] = tested on: Candida auris CBS12373 KCTC 17810; test: Antifungal MIC assay, extended panel; format: cell-based; settings: extended panel; for MIC Candida auris CBS12373 / MIC: second batch, ≥80 or ≥50% inhibition; for MIC: read-out: MIC* Candida auris CBS12373; for MIC50 Candida auris CBS12373: 50% inhibition, MIC score 2
Summary of the method: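 Yeast was grown for 3 days at 30 °C on YPD agar. Five colonies were suspended to 1 × 10^6 to 5 × 10^6 CFU/mL, checked by OD530, diluted in YNB medium, and dispensed onto compound-loaded 384-well NBS plates at 2.5 × 10^3 CFU/mL in 50 μL. Plates were covered and incubated without shaking at 35 °C for 36 h to determine MIC.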

[10] = extended panel, second batch, ≥80 or ≥50% inhibition
[11] = read-out: HEK293 CC50, ranges obtained upon retesting, new batch
[12] = initial CO-ADD screening, 1 h, 10% hemolysis
[13] = ranges obtained upon retesting, new batch
[14] = read-out: HEK CC50, initial CO-ADD screening, 20 h

| MIC Ab [1] | MIC Ec [2] | MIC Pa [3] | MIC MRSA (Sa) [4] | RBC HC10 (human red blood cells; [13]) [µM] | MIC [9] [µM] | MIC [8] [µM] | MIC50 Candida albicans ATCC 90028 ([5]; extended panel) [µM] | MIC50 Cryptococcus neoformans ATCC 208821 [6] [µM] | MIC50 Candida auris CBS10913 [8] [µM] | SMILES | MIC Candida albicans ATCC 90028 [5, 10] [µM] | MIC Ca [5] | MIC Cryptococcus neoformans ATCC 208821 [6] [µM] | MIC Cn [6] | HEK CC50 ([7]; initial CO-ADD screening, 20 h) [µg/mL] | CC50 [7, 11] [µM] | RBC HC10 (human red blood cells; [12]) | MIC Candida auris CBS10913 [8] [µM] | MIC Candida auris CBS12373 [9] [µM] | CC50 [7, 14] [µM] | also measured |
| --- | --- | --- | --- | --- | --- | --- | --- | --- | --- | --- | --- | --- | --- | --- | --- | --- | --- | --- | --- | --- | --- |
| >20 µM | >20 µM | >20 µM | >20 µM | > 100 |  |  |  |  |  | CC(C)C([O][Pt][Cl])C1=CCCC=CCC1 (centres unmarked) [Pt4] | 6.25 to 12.5 | 10 µM | ≤0.78 to 1.56 | 1.25 µM |  | > 100 | >20 µM | 6.25 to 12.5 | 1.56 to 3.12 | > 20 |  |
| >32 µg/mL | >32 µg/mL | >32 µg/mL | >32 µg/mL | 13 to 154 | ≤0.006 | 0.006 | ≤ 0.006 | ≤ 0.006 | ≤ 0.006 | COc1ccc(/C=C/C2=NN(c3ccc(C(=O)[O][Ag])cc3)C(c3ccc(OC)c(OC)c3)C2)cc1OC.COc1ccc(/C=C/C2=NN(c3ccc(C(=O)[O][Ag])cc3)C(c3ccc(OC)c(OC)c3)C2)cc1OC (racemic) [Ag1, (Ε)-1-(4-Carboxyphenyl)-5-(3,4-dimethoxyphenyl)-3-(3,4-dimethoxystyryl)-2-pyrazoline silver(I) complex] |  | ≤0.25 µg/mL |  | ≤0.25 µg/mL | >32 | 3 to 4 | >32 µg/mL |  |  |  | MIC ([5]; extended panel, second batch, ≥80 or ≥50% inhibition, read-out: MIC* Candida albicans ATCC 90028): ≤0.006 µM; MIC [6]: ≤0.006 µM; MIC50 Candida auris CBS12373 [9]: ≤ 0.006 µM |
| >32 µg/mL | >32 µg/mL | >32 µg/mL | >32 µg/mL | > 200 |  |  | ≤0.006 to 0.098 | ≤0.006 to 0.098 | ≤0.006 to 0.049 | O=C([O][Ag])c1ccc(N2N=C(/C=C/C=C/c3ccccc3)CC2/C=C/c2ccccc2)cc1.O=C([O][Ag])c1ccc(N2N=C(/C=C/C=C/c3ccccc3)CC2/C=C/c2ccccc2)cc1 (racemic) [Ag2, 1-(4-Carboxyphenyl)-3-{(1E,3E)-4-phenylbuta-1,3-dien-1-yl}-5-{(E)-styryl}-2-pyrazoline silver(I) complex] | ≤0.006 to 0.098 | ≤0.25 µg/mL | ≤0.006 to 0.098 | ≤0.25 µg/mL | >32 | 6 to 7 | >32 µg/mL | 0.006 to 0.098 | 0.006 to 0.098 |  | MIC50 Candida auris CBS12373 [9]: ≤0.006 to 0.098 µM |
| >20 µM | >20 µM | >20 µM | >20 µM | > 200 | 0.006 | 0.006 | ≤0.006 to 0.012 | ≤ 0.006 | ≤ 0.006 | Cc1ccc2ccc3ccc(C)nc3c2n1.Cc1ccc2ccc3ccc(C)nc3c2n1.O=C([O][Eu]([O]C(=O)c1ccccc1F)[O]C(=O)c1ccccc1F)c1ccccc1F [Eu1] | ≤0.006 to 0.012 |  |  |  |  | > 200 | >20 µM |  |  | > 20 | MIC [6]: ≤0.006 µM; cytotoxicity: none up to stated concentration ([7]; retest): > 200 µM; hemolysis: none up to stated concentration (human red blood cells; retest): > 200 µM; MIC50 Candida auris CBS12373 [9]: ≤ 0.006 µM |

The next lines start with the molecule.

| SMILES | MIC Ab [1] | MIC Ec [2] | MIC Pa [3] | MIC MRSA (Sa) [4] | RBC HC10 (human red blood cells; [13]) [µM] | MIC [9] [µM] | MIC [8] [µM] | MIC50 Candida albicans ATCC 90028 ([5]; extended panel) [µM] | MIC50 Cryptococcus neoformans ATCC 208821 [6] [µM] | MIC50 Candida auris CBS10913 [8] [µM] | MIC Candida albicans ATCC 90028 [5, 10] [µM] | MIC Ca [5] | MIC Cryptococcus neoformans ATCC 208821 [6] [µM] | MIC Cn [6] | HEK CC50 ([7]; initial CO-ADD screening, 20 h) [µg/mL] | CC50 [7, 11] [µM] | RBC HC10 (human red blood cells; [12]) | MIC Candida auris CBS10913 [8] [µM] | MIC Candida auris CBS12373 [9] [µM] | CC50 [7, 14] [µM] | also measured |
| --- | --- | --- | --- | --- | --- | --- | --- | --- | --- | --- | --- | --- | --- | --- | --- | --- | --- | --- | --- | --- | --- |
| CC(=NN=C(N)[S-])C(C)=NN=C(N)[S-].O=[N+]([O-])[O-].[Co+3].c1c[nH]cn1.c1c[nH]cn1 [Co1] | >32 µg/mL | >32 µg/mL | >32 µg/mL | >32 µg/mL | > 100 |  |  |  |  |  | 0.78 to 1.56 | 0.5 µg/mL | 0.39 to 0.78 | 0.5 µg/mL | >32 | > 100 | >32 µg/mL | 0.39 to 0.78 | 0.39 to 0.78 |  |  |
| C1=CCCC=CCC1.[Cl][Pt][Cl] [Pt1] | >20 µM | >20 µM | >20 µM | 1.25 µM | > 100 | 3.13 |  |  |  |  | 12.5 to 25 | 10 µM | 1.56 to 3.13 | 2.5 µM |  | > 100 | >20 µM | 6.25 to 12.5 |  | > 20 |  |
| C1=CCCC=CCC1.[I][Pt][I] [Pt2] | >20 µM | >20 µM | >20 µM | 0.625 µM | > 100 |  | 12.5 |  |  |  | 12.5 to 25 | 10 µM | 1.56 to 3.13 | 1.25 µM |  | > 100 | >20 µM |  | 3.13 to 6.25 | > 20 |  |
